In US10426800B2, “Adipose tissue-derived stem cells for veterinary use” (CELL4VET CORPORATION, priority 2008, dated 2019):

What was measured:
Format in all cases: cell-based, rat
[1] = test system: RADSC-1 cells; test: LDL-uptake of ADSC grown in subtraction or addition EGM2/EBM2 media; details: for ADSC's LDL-uptake ability on omission of the factor from EGM2: one week in subtracted EGM2 medium; for ADSC's LDL-uptake ability in EBM2 supplemented with the factor: one week in addition medium
Text: Each partially supplemented EGM2 is indicated by the omitted factor; for example, “-FGF” denotes EGM2 without FGF2. Experiments were repeated 3 times.
Experiments were repeated 3 times.
EGM2 medium is supplied by the manufacturer in the form of a basal medium (EBM2) and individual vials of supplemental factors. […] Specifically, we prepared “subtraction” EGM2 media by omitting one supplemental factor at a time.

[2] = test system: ADSC; test: EdU labeling of ADSC in vitro
Description: FIG. 9 depicts dosage effect. EdU was added to ADSC at 0, 10, 20, and 50 μM. Cellular location was identified by DAPI staining of the nucleus (which would be blue if color photos were used). EdU was detected by Alexa 594 (which would be red if color photos were used).
FIG. 10 show the results of a time-course study. ADSC were labeled with 10 μM EdU and then split at 1 day, 4 days, 7 days, 14 days, and 21 days. […] Higher magnification (1000×) of cells at day 21 is shown in panel C.
ADSCs were grown on glass coverslips in DMEM supplemented with 10% bovine calf serum, penicillin, and streptomycin. For dosage effect, EdU was added to the culture media at 0, 10, 20 and 50 μM. Twenty-four hours later, cells were washed with PBS followed by addition of regular culture media (FIG. 9). For time-course study, ADSC were labeled with 10 μM EdU and then split at 1 day, 4 days, 7 days, 14 days and 21 days (FIG. 10).
After methanol fixation, cells were washed twice with PBS and then incubated in 3% BSA in PBS followed by 0.5% Triton® X-100 in PBS for 20 minutes at room temperature. The cells were then incubated with freshly made Click-it reaction cocktail (Invitrogen) for 30 minutes at room temperature in the dark. Cells were counterstained with DAPI, mounted in standard mounting media and imaged by fluorescence microscopy.

[3] = test system: RADSC-1 cells; test: Effect of FGFR inhibitor on ADSC endothelial differentiation (LDL-uptake); details: EGM2 or FGF2/vitamin C-supplemented EBM2, in the presence of PD173074
Description: RADSC-1 cells were grown in EGM2 or EBM2 supplemented with FGF2 and vitamin C in the presence or absence of FGFR inhibitor PD173074. The cells were then assayed for LDL-uptake. […] RADSC-1 cells were also grown in VEGF/vitamin C-supplemented EBM2 for the purpose of excluding the involvement of VEGF signaling, as PD173074 is known to have a weak inhibitory effect on VEGF receptor. Experiments were repeated 3 times.

| Compound | ADSC's LDL-uptake ability on omission of the factor from EGM2 [1] | other results |
| --- | --- | --- |
| heparin | essentially no effect | – |
| C[C@]12CCC(=O)C=C1CC[C@@H]1[C@@H]2[C@@H](O)C[C@@]2(C)[C@H]1CC[C@]2(O)C(=O)CO [hydrocortisone] | essentially no effect | – |
| VEGF | essentially no effect | – |
| EGF: growth factor, supplemental factor of EGM2 medium | essentially no effect | – |
| O=C1O[C@H]([C@@H](O)CO)C(O)=C1O [vitamin C] | greatly diminished | ADSC's LDL-uptake ability in EBM2 supplemented with the factor [1]: still somewhat effective, but at a much reduced level |
| FGF2: growth factor, supplemental factor of EGM2 medium | greatly diminished | ADSC's LDL-uptake ability in EBM2 supplemented with the factor [1]: still effective, albeit at a reduced level |
| C#Cc1cn([C@H]2C[C@H](O)[C@@H](CO)O2)c(=O)[nH]c1=O [EdU, 5-ethynyl-2-deoxyuridine] | – | EdU signal in the positively labeled cells ([2]; 10 μM EdU, 1 to 21 days, P<0.01): decreased with time; cells EdU-labeled ([2]; EdU 10, 20, 50 μM, regardless of concentration): approximately 50% |
| CCN(CC)CCCCNc1ncc2cc(-c3cc(OC)cc(OC)c3)c(NC(=O)NC(C)(C)C)nc2n1 [PD173074] | – | acquisition of LDL-uptake ability [3]: unable to do so |
